Results on 6 molecules are retold here after US11149040B2, “Fused triazole agonists of the APJ receptor” (AMGEN INC., priority 2017, dated 2021).

pEC50: −log10 of the molar value.

Sequence of human APJ receptor (P35414 whole entry): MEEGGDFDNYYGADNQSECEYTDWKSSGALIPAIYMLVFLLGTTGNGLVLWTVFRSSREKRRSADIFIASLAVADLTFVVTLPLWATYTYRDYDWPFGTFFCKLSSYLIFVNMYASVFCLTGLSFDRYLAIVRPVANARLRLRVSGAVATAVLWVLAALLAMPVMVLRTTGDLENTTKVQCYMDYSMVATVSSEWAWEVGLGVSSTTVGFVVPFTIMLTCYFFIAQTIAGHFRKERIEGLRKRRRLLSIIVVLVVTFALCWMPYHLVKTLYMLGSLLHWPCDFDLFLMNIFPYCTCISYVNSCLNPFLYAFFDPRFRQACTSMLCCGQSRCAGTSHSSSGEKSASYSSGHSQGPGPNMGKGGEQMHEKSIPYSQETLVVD

The test system of the first assay is heart failure rats. Kind of assay: Cardiac contractility in vivo in heart failure rat model. The conditions noted are these: alone, acute settings. How it is done:
Evidence for Improvement in Cardiac Contractility In Vivo in Heart Failure Rat Model Based on ex vivo findings in isolated heart assay, APJ agonists are dosed in vivo to investigate the translation of cardiac contractility in in vivo settings. Male Lewis rats (Charles River, USA) at 2-3 months of age are used for the study. Heart failure is induced by permanent ligation of the left descending coronary artery which results in injury to the heart with an ejection fraction of <35%. APJ agonists are administered dose dependently acutely for a period of 30 min. Administration of APJ agonists lead to an increase in cardiac contractility as measured by dP/dtmax (derivative of left ventricular pressure).
For the molecule `C[C@H](CS)C(=O)N1CCC[C@H]1C(=O)O` [Captopril, captopril], the “improvement in contractility or ejection fraction” value is reported as “does not show a marked improvement in contractility or ejection fraction acutely”.

The target of a further assay is human APJ receptor (Homo sapiens (Human), UniProt P35414). In words: [35S]GTPγS binding assay on membranes from CHO cells stably expressing human APJ receptor. The class given is biochemical. The conditions noted are these: read-out: Activity hAPJ SPA EC50 IP. An outline of the steps:
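Membranes from CHO cells stably expressing FLAG-tagged human APJ; assay buffer GDP, MgCl2 and NaCl levels optimised beforehand. Incubation 90 min at RT, imager read-out. EC50 from non-linear regression on means of several independent experiments.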
Background: Binding of GTPγS marks nucleotide exchange on a G protein.
Usually pEC50 stands for −log10 of the EC50, conventionally taken in molar units. For the molecule `COC[C@@H]1COc2ccc(OC)nc2-c2nnc(NS(=O)(=O)[C@@H](C)[C@H](C)c3ncc(OC)cn3)n21` (stereo in doubt) [Example 3.0, (2S,3R)-N-((5R)-10-methoxy-5-(methoxymethyl)-5,6-dihydropyrido[2,3-f][1,2,4]triazolo[4,3-d][1,4]oxazepin-3-yl)-3-(5-methoxy-2-pyrimidinyl)-2-butanesulfonamide and (2S,3R)-N-((5S)-10-methoxy-5-(methoxymethyl)-5,6-dihydropyrido[2,3-f][1,2,4]traizolo[4,3-d][1,4]oxazepin-3-yl)-3-(5-methoxy-2-pyrimidinyl)-2-butanesulfonamide], the pEC50 was 6.31.
Consider `COC[C@@H]1COc2ccc(F)cc2-c2nnc(NS(=O)(=O)[C@@H](C)[C@H](OC)c3ncc(C)cn3)n21` (stereo in doubt) [Example 24.0, (1R,2S)-N-((5R)-10-fluoro-5-(methoxymethyl)-5,6-dihydro[1,2,4]traizolo[4,3-d][1,4]benzoxazepin-3-yl)-1-methoxy-1-(5-methyl-2-pyrimidinyl)-2-propanesulfonamide and (1R,2S)-N-((5S)-10-fluoro-5-(methoxymethyl)-5,6-dihydro[1,2,4]triazolo[4,3-d][1,4]benzoxazepin-3-yl)-1-methoxy-1-(5-methyl-2-pyrimidinyl)-2-propanesulfonamide], for which the pEC50 is 6.59.
For the molecule `COC[C@@H]1COc2cnccc2-c2nnc(NS(=O)(=O)[C@@H](C)[C@@H](OC(C)C)c3ncc(C)cn3)n21` (stereo in doubt) [Example 43.0, (1S,2S)-N-((5R)-5-(methoxymethyl)-5,6-dihydropyrido[4,3-f][1,2,4]triazolo[4,3-d][1,4]oxazepin-3-yl)-1-(5-methyl-2-pyrimidinyl)-1-(2-propanyloxy)-2-propanesulfonamide and (1S,2S)-N-((5S)-5-(methoxymethyl)-5,6-dihydropyrido[4,3-f][1,2,4]traizolo[4,3-d][1,4]oxazepin-3-yl)-1-(5-methyl-2-pyrimidinyl)-1-(2-propanyloxy)-2-propanesulfonamide], the pEC50 is 5.92.
The same measure, in the same setting: under `C=C1COc2ccccc2-c2nnc(NS(=O)(=O)[C@@H](C)[C@@H](OC(C)C)c3ncc(C)cn3)n21` [Example 17.0, (1S,2S)-N-(5-Methylidene-5,6-dihydro[1,2,4]triazolo[4,3-d][1,4]benzoxazepin-3-yl)-1-(5-methyl-2-pyrimidinyl)-1-(2-propanyloxy)-2-propanesulfonamide] stands 6.00; under `C=C1COc2ncccc2-c2nnc(NS(=O)(=O)[C@@H](C)[C@@H](OC(C)C)c3ncc(Cl)cn3)n21` [Example 60.0, (1S,2S)-1-(5-chloro-2-pyrimidinyl)-N-(5-methylidene-5,6-dihydropyrido[3,2-f][1,2,4]triazolo[4,3-d][1,4]oxazepin-3-yl)-1-(2-propanyloxy)-2-propanesulfonamide], 6.07.
